From ChEMBL document CHEMBL1145498, “A systematic interaction map of validated kinase inhibitors with Ser/Thr kinases” (Proc Natl Acad Sci U S A, 2007)

Key:
[1] = biological target: Calcium/calmodulin-dependent protein kinase type 1G (Homo sapiens) (UniProt Q96NX5)
[2] = biological target: Calcium/calmodulin-dependent protein kinase kinase 2 (Homo sapiens, UniProt Q96RR4)
[3] = biological target: Cyclin-dependent kinase 6 (Homo sapiens) (UniProt Q00534)
[4] = biological target: Serine/threonine-protein kinase Chk2 (Homo sapiens, UniProt O96017)
[5] = biological target: Dual specificity protein kinase CLK2 (Homo sapiens) (UniProt P49760)
[6] = biological target: Dual specificity protein kinase CLK3 (Homo sapiens) (UniProt P49761)
[7] = biological target: Casein kinase I isoform gamma-1 (Homo sapiens) (UniProt Q9HCP0)
[8] = biological target: Death-associated protein kinase 3 (Homo sapiens) (UniProt O43293)
[9] = biological target: Tyrosine-protein kinase JAK1 (Homo sapiens) (UniProt P23458)
[10] = biological target: Mitogen-activated protein kinase 11 (Homo sapiens, UniProt Q15759)
[11] = biological target: Mitogen-activated protein kinase 3 (Homo sapiens, UniProt P27361)
[12] = biological target: Serine/threonine-protein kinase Nek6 (Homo sapiens) (UniProt Q9HC98)
[13] = biological target: Serine/threonine-protein kinase OSR1 (Homo sapiens) (UniProt O95747)
[14] = biological target: Serine/threonine-protein kinase pim-2 (Homo sapiens, UniProt Q9P1W9)
[15] = biological target: Serine/threonine-protein kinase pim-3 (Homo sapiens) (UniProt Q86V86)
[16] = biological target: T1, Serine/threonine-protein kinase PLK4 (Homo sapiens) (UniProt O00444)
T1 sequence (whole entry): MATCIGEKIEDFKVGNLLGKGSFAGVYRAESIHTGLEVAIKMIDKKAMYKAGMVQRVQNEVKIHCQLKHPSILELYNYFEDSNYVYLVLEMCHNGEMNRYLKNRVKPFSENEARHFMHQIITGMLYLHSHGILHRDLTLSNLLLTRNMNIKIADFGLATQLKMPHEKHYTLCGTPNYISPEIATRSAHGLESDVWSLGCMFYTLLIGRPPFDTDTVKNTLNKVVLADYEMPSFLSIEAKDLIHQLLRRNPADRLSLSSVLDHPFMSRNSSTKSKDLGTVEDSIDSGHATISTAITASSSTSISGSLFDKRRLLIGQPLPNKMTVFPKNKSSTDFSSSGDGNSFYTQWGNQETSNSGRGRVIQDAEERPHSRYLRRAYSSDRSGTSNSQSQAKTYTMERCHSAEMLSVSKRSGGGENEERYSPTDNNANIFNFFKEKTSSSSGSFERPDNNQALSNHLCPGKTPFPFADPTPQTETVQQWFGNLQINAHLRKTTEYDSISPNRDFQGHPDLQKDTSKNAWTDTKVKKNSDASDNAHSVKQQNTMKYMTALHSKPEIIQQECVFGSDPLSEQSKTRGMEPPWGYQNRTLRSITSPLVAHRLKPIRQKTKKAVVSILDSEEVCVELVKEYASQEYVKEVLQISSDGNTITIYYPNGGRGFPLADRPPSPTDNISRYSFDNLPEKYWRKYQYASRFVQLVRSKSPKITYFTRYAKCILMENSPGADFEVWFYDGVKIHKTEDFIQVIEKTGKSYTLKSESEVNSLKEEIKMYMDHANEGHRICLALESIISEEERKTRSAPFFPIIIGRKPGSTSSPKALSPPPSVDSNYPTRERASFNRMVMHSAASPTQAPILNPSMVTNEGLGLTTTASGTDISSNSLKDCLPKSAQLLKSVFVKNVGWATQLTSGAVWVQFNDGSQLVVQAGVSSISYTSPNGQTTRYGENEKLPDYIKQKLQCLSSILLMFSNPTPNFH

[17] = biological target: cAMP-dependent protein kinase catalytic subunit alpha (Homo sapiens) (UniProt P17612)
[18] = biological target: Ribosomal protein S6 kinase alpha-3 (Homo sapiens) (UniProt P51812)
[19] = biological target: STE20-like serine/threonine-protein kinase (Homo sapiens) (UniProt Q9H2G2)
[20] = biological target: T2, Lymphokine-activated killer T-cell-originated protein kinase (Homo sapiens) (UniProt Q96KB5)
T2 sequence (whole entry): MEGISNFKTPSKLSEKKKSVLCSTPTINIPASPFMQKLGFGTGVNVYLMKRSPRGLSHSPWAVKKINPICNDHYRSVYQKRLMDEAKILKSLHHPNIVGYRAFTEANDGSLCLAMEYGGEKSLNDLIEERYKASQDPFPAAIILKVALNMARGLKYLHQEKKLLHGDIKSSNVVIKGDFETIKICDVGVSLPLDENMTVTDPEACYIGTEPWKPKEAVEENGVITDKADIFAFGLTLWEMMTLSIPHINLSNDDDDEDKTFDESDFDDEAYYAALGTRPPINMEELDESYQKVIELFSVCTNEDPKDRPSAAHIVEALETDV

[21] = biological target: T3, Serine/threonine-protein kinase VRK3 (Homo sapiens) (UniProt Q8IV63)
T3 sequence (whole entry): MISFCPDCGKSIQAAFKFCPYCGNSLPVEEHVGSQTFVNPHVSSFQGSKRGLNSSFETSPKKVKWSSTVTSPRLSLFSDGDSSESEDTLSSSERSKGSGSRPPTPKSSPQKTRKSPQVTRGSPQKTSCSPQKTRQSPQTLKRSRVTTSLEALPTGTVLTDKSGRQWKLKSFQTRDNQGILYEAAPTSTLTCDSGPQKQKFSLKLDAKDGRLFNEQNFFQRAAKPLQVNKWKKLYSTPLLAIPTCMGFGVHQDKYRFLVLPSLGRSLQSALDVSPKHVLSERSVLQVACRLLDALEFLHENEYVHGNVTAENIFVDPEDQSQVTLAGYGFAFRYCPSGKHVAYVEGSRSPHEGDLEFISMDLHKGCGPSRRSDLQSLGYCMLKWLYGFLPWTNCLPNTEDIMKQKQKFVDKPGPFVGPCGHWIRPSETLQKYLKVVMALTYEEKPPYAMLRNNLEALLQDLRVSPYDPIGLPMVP

Dual specificity protein kinase CLK3 (Homo sapiens), sequence (P49761 whole entry, looked up, canonical isoform): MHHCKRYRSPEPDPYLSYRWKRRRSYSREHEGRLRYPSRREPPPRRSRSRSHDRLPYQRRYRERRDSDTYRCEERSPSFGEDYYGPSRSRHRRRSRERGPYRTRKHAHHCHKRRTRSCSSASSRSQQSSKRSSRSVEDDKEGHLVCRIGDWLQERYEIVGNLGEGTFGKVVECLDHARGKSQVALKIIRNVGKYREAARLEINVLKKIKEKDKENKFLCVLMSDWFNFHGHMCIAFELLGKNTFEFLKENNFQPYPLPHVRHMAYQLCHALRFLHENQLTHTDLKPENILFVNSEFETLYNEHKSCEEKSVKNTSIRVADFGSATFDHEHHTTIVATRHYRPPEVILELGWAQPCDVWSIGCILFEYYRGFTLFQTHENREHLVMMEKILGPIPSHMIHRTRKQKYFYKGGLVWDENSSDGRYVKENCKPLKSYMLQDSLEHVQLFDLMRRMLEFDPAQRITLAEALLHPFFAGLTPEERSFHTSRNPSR
Mitogen-activated protein kinase 11, sequence (Q15759 whole entry): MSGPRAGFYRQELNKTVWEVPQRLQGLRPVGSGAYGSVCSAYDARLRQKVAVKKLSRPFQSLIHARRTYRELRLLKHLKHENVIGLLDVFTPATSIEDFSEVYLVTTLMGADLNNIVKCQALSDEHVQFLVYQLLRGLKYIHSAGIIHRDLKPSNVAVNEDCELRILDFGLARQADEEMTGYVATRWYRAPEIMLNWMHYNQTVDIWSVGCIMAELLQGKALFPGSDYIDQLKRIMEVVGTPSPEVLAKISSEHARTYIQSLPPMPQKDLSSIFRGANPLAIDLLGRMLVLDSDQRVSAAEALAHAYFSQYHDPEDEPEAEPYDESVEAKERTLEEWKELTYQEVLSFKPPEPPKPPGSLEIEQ
Calcium/calmodulin-dependent protein kinase type 1G (Homo sapiens), sequence (Q96NX5 whole entry): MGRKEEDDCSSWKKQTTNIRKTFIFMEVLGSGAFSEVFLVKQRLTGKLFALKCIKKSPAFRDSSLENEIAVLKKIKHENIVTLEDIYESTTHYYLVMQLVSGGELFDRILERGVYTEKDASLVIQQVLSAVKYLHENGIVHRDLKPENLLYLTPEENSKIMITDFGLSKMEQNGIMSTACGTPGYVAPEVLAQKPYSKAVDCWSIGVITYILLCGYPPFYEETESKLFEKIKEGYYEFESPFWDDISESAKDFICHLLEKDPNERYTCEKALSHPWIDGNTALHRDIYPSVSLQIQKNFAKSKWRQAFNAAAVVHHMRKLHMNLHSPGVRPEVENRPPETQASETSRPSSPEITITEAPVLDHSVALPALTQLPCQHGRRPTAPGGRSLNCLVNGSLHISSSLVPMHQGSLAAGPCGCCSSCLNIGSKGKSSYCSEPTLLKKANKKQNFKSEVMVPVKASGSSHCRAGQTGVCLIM
Death-associated protein kinase 3 (Homo sapiens), sequence (O43293 whole entry, looked up): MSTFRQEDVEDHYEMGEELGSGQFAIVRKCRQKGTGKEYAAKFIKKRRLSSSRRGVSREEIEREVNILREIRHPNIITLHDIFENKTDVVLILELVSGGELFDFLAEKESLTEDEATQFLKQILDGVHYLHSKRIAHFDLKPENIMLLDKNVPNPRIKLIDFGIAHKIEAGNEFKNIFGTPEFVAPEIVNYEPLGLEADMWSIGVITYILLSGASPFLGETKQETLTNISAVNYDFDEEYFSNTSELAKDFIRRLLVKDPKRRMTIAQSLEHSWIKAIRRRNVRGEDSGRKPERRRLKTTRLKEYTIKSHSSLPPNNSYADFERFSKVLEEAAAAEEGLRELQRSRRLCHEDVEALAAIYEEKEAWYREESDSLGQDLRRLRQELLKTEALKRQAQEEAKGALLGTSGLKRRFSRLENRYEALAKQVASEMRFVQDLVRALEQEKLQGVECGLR
Serine/threonine-protein kinase Nek6 (Homo sapiens), sequence (Q9HC98 whole entry): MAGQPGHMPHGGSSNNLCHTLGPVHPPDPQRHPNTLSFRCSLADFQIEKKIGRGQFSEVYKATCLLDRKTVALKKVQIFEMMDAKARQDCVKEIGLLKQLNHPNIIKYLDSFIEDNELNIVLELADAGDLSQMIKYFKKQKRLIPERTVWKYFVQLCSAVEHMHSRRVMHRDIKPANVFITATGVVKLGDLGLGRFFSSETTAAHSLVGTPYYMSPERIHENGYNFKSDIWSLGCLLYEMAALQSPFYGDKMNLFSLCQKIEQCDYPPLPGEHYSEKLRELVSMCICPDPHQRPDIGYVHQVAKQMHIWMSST
STE20-like serine/threonine-protein kinase (Homo sapiens), sequence (Q9H2G2 whole entry, looked up): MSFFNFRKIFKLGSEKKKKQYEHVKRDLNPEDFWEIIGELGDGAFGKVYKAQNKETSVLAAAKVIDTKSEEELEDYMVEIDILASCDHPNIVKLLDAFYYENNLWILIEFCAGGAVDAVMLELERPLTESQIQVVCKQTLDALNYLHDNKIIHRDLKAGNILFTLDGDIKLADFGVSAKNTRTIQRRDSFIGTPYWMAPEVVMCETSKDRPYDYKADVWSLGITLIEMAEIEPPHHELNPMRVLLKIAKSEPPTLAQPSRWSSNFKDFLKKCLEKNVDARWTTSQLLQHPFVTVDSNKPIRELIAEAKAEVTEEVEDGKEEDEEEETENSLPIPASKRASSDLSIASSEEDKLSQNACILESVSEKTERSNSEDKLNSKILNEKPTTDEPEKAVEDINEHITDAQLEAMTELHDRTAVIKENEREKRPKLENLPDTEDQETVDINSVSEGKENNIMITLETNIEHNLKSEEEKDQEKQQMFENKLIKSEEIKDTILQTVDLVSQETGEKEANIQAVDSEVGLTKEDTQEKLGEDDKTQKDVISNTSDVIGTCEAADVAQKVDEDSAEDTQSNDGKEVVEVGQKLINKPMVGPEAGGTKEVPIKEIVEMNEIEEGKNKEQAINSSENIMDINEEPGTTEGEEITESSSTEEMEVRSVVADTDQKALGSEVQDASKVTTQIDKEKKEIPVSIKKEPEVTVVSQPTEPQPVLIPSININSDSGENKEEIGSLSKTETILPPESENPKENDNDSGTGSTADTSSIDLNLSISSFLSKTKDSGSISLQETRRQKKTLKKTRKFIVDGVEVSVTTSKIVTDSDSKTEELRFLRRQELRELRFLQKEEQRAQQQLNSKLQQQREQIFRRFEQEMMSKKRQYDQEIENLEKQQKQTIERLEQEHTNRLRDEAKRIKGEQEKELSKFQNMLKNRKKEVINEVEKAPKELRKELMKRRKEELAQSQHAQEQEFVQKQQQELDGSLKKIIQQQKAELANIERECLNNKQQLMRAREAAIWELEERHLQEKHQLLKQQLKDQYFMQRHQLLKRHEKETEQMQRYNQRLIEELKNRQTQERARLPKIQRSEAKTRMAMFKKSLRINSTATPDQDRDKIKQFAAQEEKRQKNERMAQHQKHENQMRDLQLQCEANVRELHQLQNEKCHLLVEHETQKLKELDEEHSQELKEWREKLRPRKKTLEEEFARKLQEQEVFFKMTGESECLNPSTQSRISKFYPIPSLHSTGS
Ribosomal protein S6 kinase alpha-3 (Homo sapiens), sequence (P51812 whole entry): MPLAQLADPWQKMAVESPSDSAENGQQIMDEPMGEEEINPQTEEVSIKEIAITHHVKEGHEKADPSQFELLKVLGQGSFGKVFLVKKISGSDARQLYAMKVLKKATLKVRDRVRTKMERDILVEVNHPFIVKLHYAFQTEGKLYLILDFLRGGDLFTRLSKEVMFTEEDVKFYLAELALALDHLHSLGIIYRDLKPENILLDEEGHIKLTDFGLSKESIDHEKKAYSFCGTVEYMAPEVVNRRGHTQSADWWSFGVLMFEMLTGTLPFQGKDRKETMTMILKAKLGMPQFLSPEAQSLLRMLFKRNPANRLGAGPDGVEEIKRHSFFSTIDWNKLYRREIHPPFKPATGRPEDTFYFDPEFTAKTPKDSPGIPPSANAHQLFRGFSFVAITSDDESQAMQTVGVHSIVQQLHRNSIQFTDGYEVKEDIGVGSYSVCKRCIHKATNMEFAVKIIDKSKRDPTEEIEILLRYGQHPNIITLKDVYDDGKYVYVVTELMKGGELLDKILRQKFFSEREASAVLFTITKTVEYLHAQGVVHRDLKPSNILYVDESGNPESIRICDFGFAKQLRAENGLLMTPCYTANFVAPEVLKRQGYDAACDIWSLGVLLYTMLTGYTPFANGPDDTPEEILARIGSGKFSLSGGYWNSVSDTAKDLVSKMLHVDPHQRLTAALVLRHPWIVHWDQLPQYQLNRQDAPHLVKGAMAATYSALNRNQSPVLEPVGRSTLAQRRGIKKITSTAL
Dual specificity protein kinase CLK2 (Homo sapiens), sequence (P49760 whole entry, looked up): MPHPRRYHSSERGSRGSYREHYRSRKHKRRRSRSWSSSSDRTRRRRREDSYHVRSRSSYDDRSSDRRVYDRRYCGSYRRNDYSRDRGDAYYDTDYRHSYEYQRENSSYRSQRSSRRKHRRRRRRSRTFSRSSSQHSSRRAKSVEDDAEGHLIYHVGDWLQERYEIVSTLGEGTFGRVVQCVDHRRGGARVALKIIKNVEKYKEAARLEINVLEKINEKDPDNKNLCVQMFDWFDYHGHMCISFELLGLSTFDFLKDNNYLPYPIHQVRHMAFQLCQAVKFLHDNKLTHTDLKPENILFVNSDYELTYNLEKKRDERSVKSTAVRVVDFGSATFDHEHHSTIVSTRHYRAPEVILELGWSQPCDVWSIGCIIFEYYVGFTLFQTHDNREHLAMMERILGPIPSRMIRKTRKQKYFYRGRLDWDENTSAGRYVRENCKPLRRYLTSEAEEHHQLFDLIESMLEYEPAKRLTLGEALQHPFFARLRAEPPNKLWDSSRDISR
Mitogen-activated protein kinase 3, sequence (P27361 whole entry): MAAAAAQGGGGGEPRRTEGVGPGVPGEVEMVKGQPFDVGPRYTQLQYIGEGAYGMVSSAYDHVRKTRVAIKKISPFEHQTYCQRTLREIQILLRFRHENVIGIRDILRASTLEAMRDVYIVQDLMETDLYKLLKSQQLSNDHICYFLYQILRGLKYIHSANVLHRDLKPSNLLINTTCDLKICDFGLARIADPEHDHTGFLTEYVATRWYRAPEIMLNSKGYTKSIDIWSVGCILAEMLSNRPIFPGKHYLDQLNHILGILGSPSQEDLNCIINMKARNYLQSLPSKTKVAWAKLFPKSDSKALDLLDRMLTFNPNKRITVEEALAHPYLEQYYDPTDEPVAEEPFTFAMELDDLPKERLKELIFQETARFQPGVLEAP

Row | Compound | ΔTm [1] | ΔTm [2] | ΔTm [3] | ΔTm [4] | ΔTm [5] | ΔTm [6] | ΔTm [7] | ΔTm [8] | ΔTm [9] | ΔTm [10] | ΔTm [11] | ΔTm [12] | ΔTm [13] | ΔTm [14] | ΔTm [15] | ΔTm [16] | ΔTm [18] | ΔTm [19] | ΔTm [20] | ΔTm [21] | also measured
1 | CC(C)n1cnc2/c(=N/c3cccc(Cl)c3)nc(NCCO)[nH]c21 | 0.1 °C | 2.3 °C | 0 °C | 1.7 °C | 4.5 °C | 4 °C | 6.1 °C | 2.2 °C | 3.7 °C | -0.1 °C | 0.2 °C | 0.1 °C | 1.3 °C | 0.6 °C | 2.3 °C | 1.3 °C | 2.1 °C | 1.6 °C | -0.1 °C | 0.4 °C | ΔTm [17]: 1.4 °C
2 | NS(=O)(=O)c1ccc(Nc2nc(OCC3CCCCC3)c3nc[nH]c3n2)cc1 | 1.6 °C | 0.8 °C | 4.9 °C | 2.5 °C | 2.7 °C | 1.3 °C | 2.6 °C | 0.8 °C | 9.5 °C | 0.6 °C | 0.1 °C | 0.1 °C | 1 °C | 0.6 °C | 1.3 °C | 1.1 °C | 1.4 °C | 2.2 °C | 0.9 °C | 4.7 °C | ΔTm [17]: -0.1 °C
3 | Cc1c2ccncc2c(C)c2c1[nH]c1ccccc12 [ELLIPTECINE] | 0.3 °C | 1.3 °C | 0.2 °C | 2 °C | 3.3 °C | 4.2 °C | 0.6 °C | 4.3 °C | 2.3 °C | 0.6 °C | 0.3 °C | 2.5 °C | 0.3 °C | 7.1 °C | 1.3 °C | 3.3 °C | 1.8 °C | 4.1 °C | 0.3 °C | 1.3 °C | ΔTm [17]: 5.9 °C
4 | NC(=O)c1ccc2[nH]c(-c3ccc(Oc4ccc(Cl)cc4)cc3)nc2c1 | 2.6 °C | 2.4 °C | 0.6 °C |  | -0.4 °C | 0.5 °C | 1.7 °C | 1.2 °C | 1.7 °C | -0.4 °C | -0.2 °C | 0.4 °C | 0.8 °C | 1 °C | -0.8 °C | 1.4 °C | 1 °C | 0 °C | 0.9 °C | 1.2 °C | ΔTm [17]: 0.4 °C
5 | CN(C)C[C@@H]1CCn2cc(c3ccccc32)C2=C(C(=O)NC2=O)c2cn(c3ccccc23)CCO1 [RUBOXISTAURIN] | 0.1 °C | 1.6 °C | 0.5 °C | 3.5 °C | 4.2 °C | 0.3 °C | 0.5 °C | 1.1 °C | -0.5 °C | 0.3 °C | 0.5 °C | -0.6 °C | -0.5 °C | 2.1 °C | 5.8 °C | 1.5 °C | 0.9 °C | 7 °C | 0.9 °C | -0.3 °C | 
